A word on the EC50: it is the concentration at which the effect is half-maximal. High values mean a less potent agent, low ones a more potent agent.

This is an account of results in ChEMBL document CHEMBL6109132, “Potent and Selective Human Constitutive Androstane Receptor Activator DL5055 Facilitates Cyclophosphamide-Based Chemotherapies” (J Med Chem, 2025).

Structures are written as SMILES.

Series [1] addresses T1, Nuclear receptor subfamily 1 group I member 3 (Homo sapiens, UniProt Q14994).
T1 sequence (Q14994 whole entry): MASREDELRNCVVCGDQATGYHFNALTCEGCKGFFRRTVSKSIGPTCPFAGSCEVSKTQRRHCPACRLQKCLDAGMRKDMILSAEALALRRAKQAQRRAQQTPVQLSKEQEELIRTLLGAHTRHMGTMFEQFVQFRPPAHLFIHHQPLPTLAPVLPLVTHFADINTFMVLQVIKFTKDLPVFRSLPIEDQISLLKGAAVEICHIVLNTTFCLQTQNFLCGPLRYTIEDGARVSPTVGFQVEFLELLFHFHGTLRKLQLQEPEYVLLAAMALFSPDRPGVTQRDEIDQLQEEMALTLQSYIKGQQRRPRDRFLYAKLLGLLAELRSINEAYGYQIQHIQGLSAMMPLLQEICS
Kind of series: Agonist activity at human CAR expressed in human HepG2 cells co-expressing CYP2B6 incubated for 23 hrs by Luciferase reporter gene assay. The format is cell-based.

Series [2] addresses T2, Nuclear receptor subfamily 1 group I member 2 (Homo sapiens, UniProt O75469).
T2 sequence (O75469 whole entry): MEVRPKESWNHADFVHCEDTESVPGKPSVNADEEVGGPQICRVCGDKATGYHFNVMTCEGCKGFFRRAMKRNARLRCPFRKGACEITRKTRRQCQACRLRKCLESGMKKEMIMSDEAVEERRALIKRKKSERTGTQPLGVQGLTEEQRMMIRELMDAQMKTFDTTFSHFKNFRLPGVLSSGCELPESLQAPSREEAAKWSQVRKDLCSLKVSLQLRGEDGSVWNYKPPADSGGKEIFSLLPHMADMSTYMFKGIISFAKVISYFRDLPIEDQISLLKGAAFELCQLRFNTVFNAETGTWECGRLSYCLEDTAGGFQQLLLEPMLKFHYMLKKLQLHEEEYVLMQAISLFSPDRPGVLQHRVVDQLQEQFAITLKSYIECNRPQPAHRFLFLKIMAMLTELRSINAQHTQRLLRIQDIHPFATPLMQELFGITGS
As to the kind of experiment: Activation of human PXR expressed in human HepG2 cells assessed as increase in CYP3A4 mRNA level at >1 uM incubated for 24 hrs by luciferase based analysis. The format is cell-based. The following applies: hepg2, 24 h.

With `O=C(Nc1c(-c2ccc3ccccc3c2)nc2occn12)C1Cc2ccccc2C1`, the EC50 in series [1] is 1200 nM. Turning to `O=C(N[C@H]1C[C@H](c2ccccc2)C1)c1c(-c2ccc3ccccc3c2)nc2occn12`, the EC50 in series [1] stood at 1100 nM.

Compound `O=C(NC1Cc2ccccc2C1)c1c(-c2ccc3c(c2)OCCO3)nc2occn12` showed an EC50 in series [1] of 750 nM. In the case of `O=C(NCCc1ccc(Br)cc1)c1c(-c2ccc3ccccc3c2)nc2occn12`, the response in series [1] was half-maximal at 3500 nM (EC50).

As for `O=C(NC1Cc2ccccc2C1)c1c(CCc2ccccc2)nc2occn12`, the EC50 in series [1] was greater than 100000 nM. Compound `c1ccc2c(c1)CC(NCc1c(-c3ccc4ccccc4c3)nc3occn13)C2` showed an EC50 in series [1] of 670 nM. Moreover, the outcome in series [2] was Active. Take `O=C(NOCc1ccccc1)c1c(-c2ccc3ccccc3c2)nc2occn12`: the EC50 in series [1] came out at 4400 nM. Regarding `Cc1ccccc1CCNC(=O)c1c(-c2ccc3ccccc3c2)nc2occn12`, the EC50 in series [1] came out at 830 nM. As for `O=C(NC1Cc2ccccc2C1)c1c(-c2ccc(F)c(C(F)(F)F)c2)nc2occn12`, in series [1], it took 18000 nM to reach a half-maximal effect (EC50). On to `O=C(OC1Cc2ccccc2C1)c1c(-c2ccc3ccccc3c2)nc2occn12`, for which, in series [1], a half-maximal response (EC50) required 380 nM. On to `O=C(NC1Cc2ccccc2C1)c1c(-c2ccc(Cl)cc2)nc2occn12`, for which the EC50 in series [1] amounted to 380 nM. Same read-out and setting: for `O=C(NC1Cc2ccccc2C1)c1c(-c2ccc(F)cc2F)nc2occn12` the value was 440 nM; for `O=C(N[C@H]1C[C@@H](c2ccccc2)C1)c1c(-c2ccc3ccccc3c2)nc2occn12`, 330 nM; for `O=C(NCC1Cc2ccccc2C1)c1c(-c2ccc3ccccc3c2)nc2occn12`, 210 nM. As to `O=C(NOCc1ccc(Cl)c(Cl)c1)c1c(-c2ccc3ccccc3c2)nc2occn12`, the response in series [1] was half-maximal at 350 nM (EC50).

As for `O=C(NCC1Cc2ccccc2C1)c1c(-c2ccc(F)cc2F)nc2occn12`, in series [1], a half-maximal response (EC50) required 1900 nM. Against the preceding compound, the EC50 is about 5.4-fold higher. Regarding `Clc1ccc(-c2nc3sccn3c2/C=N/OCc2ccc(Cl)c(Cl)c2)cc1`, the outcome in series [2] was Active.
